Description: These two sunscreens are difficult to dissolve and keep in solution for use in sunscreen formulations for optimal SPF (Sun-Protection Factors). Higher solvency for a sunscreen ingredient is described as it allows higher concentrations of the sunscreen active ingredient in a formulation. […] The liquid organic sunscreens that are commonly used as octylsalicylate (OS) and octyl-methoxycinnamate (OMC).

Solubility in Finester LP (%): 10%
Solubility in Finsolv TN (%): 15%
Structure (SMILES): COc1ccc(C(=O)c2ccccc2)c(O)c1 [Benzophenone-3, 2 hydroxy-4-methoxybenzophenone]
